Results published in US9603878B2, “Probiotic and prebiotic compositions, and methods of use thereof for treatment and prevention of graft versus host disease” (Evelo Biosciences, Inc., priority 2014, dated 2017).

Columns and labels:
[1] = tested on: normal mice; assay: Mouse study: gut microbiome after xylose treatment; type: in vivo
[2] = tested on: healthy, adult volunteers; conditions: human, in vivo
Description: D-xylose is a carbon source generally preferred by anaerobic bacteria. […] A parallel, double-blind, 5 cohort escalation food safety study was conducted to examine D-xylose in normal human volunteers. The study was a double-blind, single-center, parallel group study designed to evaluate the tolerability and potential microbiome changes induced by ingestion of D-xylose at 5 different amounts in healthy, adult volunteers enrolled at 1 study center in the United States (US).
Subjects were screened for eligibility within 21 days prior to the first planned ingestion of study sweetener on Day 1 (Baseline). […]
Subjects returned to the study center weekly on Days 8, 15, 22, and 28 for ingestion, tolerability, and compliance evaluations. Safety was evaluated on a continual basis through adverse events (AE) monitoring, clinical laboratory measurements, vital sign monitoring, physical examinations, electrocardiograms (ECGs), telephone follow-up, and electronic subject ingestion diaries. Stool was collected pre-ingestion and at pre-specified time points, and post-ingestion samples were evaluated for changes in the gut microbiome compared with Baseline for all subjects. […]
Safety was evaluated on a continual basis through AE monitoring, clinical laboratory measurements, vital sign monitoring, physical examinations, ECGs, telephone follow-up, and electronic subject ingestion diaries. […]

[3] = tested on: mice with GVHD; assay: Xylose in drinking water in experimental GVHD model after BMT; type: in vivo, mouse
[4] = tested on: healthy, adult volunteers; assay: Normal human volunteer study of D-xylose: CRP, serum cytokines, T-cell markers; type: in vivo
From the text: Blood was collected at pre-specified pre- and post-ingestion time points to evaluate C-reactive protein (CRP), serum cytokines (tumor necrosis factor alpha [TNF-α], interleukin [IL]-2, IL-6, interferon gamma [IFN-γ], and IL-10), and T-cell markers CD3, CD4, CD8, CD25, and FOXP3. Plasma was also stored and may be tested for biomarkers and/or metabolic markers for up to 7 years.
Summary statistics (n, mean, standard deviation, median, minimum, and maximum) were presented for serum concentrations of CRP, flow cytometry T-cell markers (CD3, CD4, CD8, CD25, and FOXP3), and cytokines (TNF-α, IL-2, IL-6, IFN-γ, and IL-10) as per their nominal time points.

[5] = tested on: Lactobacillus johnsonii; assay: Sugar fermentation/growth in media lacking glucose (pH and optical density)
[6] = tested on: gut microbiome; assay: Normal human volunteer study of D-xylose: changes in the gut microbiome (stool 16S); type: in vivo; conditions: for alpha diversity of the gut microbiome: over time on study
[7] = tested on: blautia; assay: Sugar fermentation/growth in media lacking glucose (pH and optical density)
[8] = tested on: Tregs in the large intestine; conditions: germ-free mice and vancomycin-treated conventional mice; cited from earlier work
[9] = tested on: C57B1/6 female mice; conditions: mouse, in vivo
Description: The possibility that modification of the microbiome in a given physical location may influence the microbiome at other sites in the body (distal augmentation) was investigated. Seven week old C57B1/6 female mice were acclimatized for 7 days prior to the start of the study by daily handling and shuffling between cages. All mice were housed at three mice per cage in individually vented cages (Thoren, Hazleton, Pa.). At day 0, baseline fresh fecal pellets, and vaginal lavages with 100 μL of sterile double-distilled water were collected and immediately frozen at −80° C. for microbiome analysis. […] Water alone is not expected to influence the microbiome and acted as a negative control. […] The impact of oral vancomycin is therefore expected to be limited to the gastrointestinal tract such that microbiome changes elsewhere in the body (e.g. vagina) would be attributable to distal augmentation. At day 6, fresh fecal pellets and vaginal lavages with 100 μL of sterile double-distilled water were collected and immediately stored at −80° C. for microbiome analysis.
Isolation and sequencing of microbial DNA from the stool and vaginal samples was performed by DNA Genotek (Ottawa, ON, Canada). The V3-V4 region of the 16S ribosomal subunit was amplified with custom PCR primers and sequenced on an Illumina MiSeq to a minimum acceptable read depth of 25,000 sequences per sample. […]

[10] = tested on: tumors; conditions: oral administration; anti-PD-1 / anti-CTLA-4 antibody therapy; cited from earlier work

## O=C[C@H](O)[C@@H](O)[C@H](O)CO [xylose, D-xylose]
[1]
  shifts in the gut microbiome: did not cause major shifts in the gut microbiome but showed some differences at the family level
[2]
  SAEs, severe AEs, deaths: No SAEs, severe AEs, or subject deaths were reported
[3]; long-term administration
  survival of mice with GVHD: led to improved survival of mice with GVHD
[3]; xylose in drinking water, day 14 after BMT
  Blautia in the intestinal flora: lead to an expansion of Blautia in the intestinal flora
[4]; any ingestion amount
  total T-cells and T-cell subsets over time: No consistent or clinically meaningful changes over time in total T-cells or any T-cell subsets
[4]; cohorts combined
  subjects with normal serum CRP at Baseline and at least 1 post-ingestion CRP value >2.9 mg/L: 8.3%
[4]; most data points BLQ
  serum cytokines (TNF-α, IL-2, IL-6, IFN-γ, IL-10) over time: did not indicate any consistent or clinically meaningful changes over time
[5]
  augmentation / fermentation by lactobacillus: not lactobacillus
[6]; regardless of ingestion amount
  gut microbiome community composition over time: no significant changes in community composition
  alpha diversity of the gut microbiome: no major shifts in the microbiome alpha diversity
[6]; regardless of ingestion amount, listed as D-xylose
  alpha diversity of the gut microbiome: no apparent significant impact on the intra-sample alpha diversity of the gut microbiome
[6]; xylose TID at 1, 2, 8, 12.5 or 15 grams
  Chao diversity index over time: overall decrease in the Chao diversity index over time
[7]
  augmentation / fermentation by blautia: specifically augments blautia

## C[C@H](O)[C@H](O)[C@@H](O)[C@@H](O)C=O [rhamnose]
[5]
  augmentation / fermentation by lactobacillus: not lactobacillus
[7]
  augmentation / fermentation by blautia: specifically augments blautia

## CCC(=O)O [propionate]
[8]
  numbers of Tregs in the large intestine: restored normal numbers of Tregs in the large intestine

## CN[C@H](CC(C)C)C(=O)N[C@H]1C(=O)N[C@@H](CC(N)=O)C(=O)N[C@H]2C(=O)N[C@H]3C(=O)N[C@H](C(=O)N[C@H](C(=O)O)c4cc(O)cc(O)c4-c4cc3ccc4O)[C@H](O)c3ccc(c(Cl)c3)Oc3cc2cc(c3O[C@@H]2O[C@H](CO)[C@@H](O)[C@H](O)[C@H]2O[C@H]2C[C@](C)(N)[C@H](O)[C@H](C)O2)Oc2ccc(cc2Cl)[C@H]1O [vancomycin]
[9]
  impact on the microbiome of the gut (PCA, family level): strong impact on the microbiome of the gut
  impact on the vaginal microbiome (PCA, family level): showed an overall difference between the PBS and oral vancomycin groups

## Bacteroides
[10]
  responsiveness to checkpoint inhibitor therapy in cancer: increases the responsiveness

## Bifidobacterium
[10]
  responsiveness to checkpoint inhibitor therapy in cancer: increases the responsiveness

## CC(=O)O [acetate]
[8]
  numbers of Tregs in the large intestine: restored normal numbers of Tregs in the large intestine
